Read-outs that look alike come from different tables or passages of the source.
How the values were obtained:
[1] = test system: serotonin release, human blood platelets; experiment: Serotonin release from human blood platelets; type: cell-based; conditions: for activation at 50 µM: Platelet, product concentration 5 × 10^-5 moles per liter, increase relative to controls, human blood platelets, read-out: Percent of increased serotonin release
Description: "Platelets Function and Thrombosis, a Review of Methods" p.
The action of the products on serotonin release is tested at a concentration of 5×10^-5 moles per liter.

[2] = test system: male mice CD1 (Charles RIVER); experiment: Acute toxicity in male mice CD1, oral administration; type: in vivo; conditions: male CD1 mouse
Description: The acute toxicity of the products has been established in male mice CD1 (Charles RIVER) by oral administration. The compounds according to the invention are relatively not very toxic substances. For example, the product of Example 1 is non-toxic in the mouse if administered at a dose of 100 mg/kg.

[3] = test system: serotonin uptake by human blood platelets; experiment: Inhibition of serotonin uptake in human blood platelets; type: cell-based; conditions: Platelet, read-out: Inhibition of serotonin uptake I50
Text: It is known that serotonin uptake by the blood platelets is a good model for the uptake of this amine by the neurons (cf. J. Tuomisto, J. Pharm., Pharmac., 26, 92 (1974). When applied to the study of medicaments, any method involving the use of blood platelets is of great interest because it allows the use of human cells, so that its estimation character is good.
"Platelets Function and Thrombosis, a Review of Methods" p. 335 (Plenum Press, London, 1972).
1. Inhibition of Serotonin Uptake
The results are expressed by inhibitory dose 50% or I50 which represents the dose of the product in micromoles per liter which reduce the rate of serotonin uptake by 50%.

| Compound | activation at 50 µM [1] | Acute toxicity at 100 mg/kg [2] | IC50 ([3]; Homo sapiens) | IC50 ([3]; human blood platelets, dose reducing the rate of serotonin uptake by 50%) | Serotonin release (in words) ([1]; compared with p-chloroamphetamine) |
| --- | --- | --- | --- | --- | --- |
| CC(CC1CCNCC1)c1c[nH]c2ccccc12 (stereo not shown) [Example 1, 3-[2-(4-Piperidyl)-1-Methyl-Ethyl]-Indole] | 62% | non-toxic | 50 nM |  |  |
| CN(C)CCCN1c2ccccc2CCc2ccccc21 [Imipramine] | 12% |  | 400 nM |  |  |
| c1ccc2c(CCC3CCNCC3)c[nH]c2c1 [Indalpine, 3-[2-(4-piperidyl)-ethyl]-indole] | 22% |  |  | 35 nM |  |
| CC(N)Cc1ccc(Cl)cc1 (stereo not shown) [p-chloroamphetamine] | 51% |  | 12000 nM |  | induce serotonin release |

Reference: patent US4416888A, “3-(2-(4-Piperidyl)-1-alkyl-ethyl)-indoles and their use as medicaments” (Pharmindustrie, priority 1981, dated 1983)
